According to ChEMBL document CHEMBL1201862, “PubChem BioAssay data set” (2004):
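Cells were grown in 96-well plates and exposed to each compound for 48 hours at five concentrations; endpoints were interpolated linearly between bracketing concentrations, or set to the highest concentration if not reached. At the GI50, growth is halved.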 The source made the active and inactive calls. Rule as the data show it: active = GI50 up to about 1.1 µM and inactive = higher.

Columns and labels:
Experiment in all cases: DTP human tumour cell line panel, 48 h
LXFL 529 = test system: LXFL 529
M19-MEL = test system: M19-MEL
HOP-18 = test system: HOP-18
XF498 = test system: XF498
SNB-78 = test system: SNB-78
DMS-114 = test system: DMS-114
KM-20L2 = test system: KM-20L2
DMS-273 = test system: DMS-273
RXF 631 = test system: RXF 631

CC(=O)O[C@]12CCCCCC1C1(O)C(O)CCC[C@H]12 (some centres undefined)
GI50 (LXFL 529): > 100 µM (inactive) | GI50 (M19-MEL): > 100 µM (inactive) | GI50 (HOP-18): > 100 µM (inactive) | GI50 (XF498): > 100 µM (inactive) | GI50 (SNB-78): > 100 µM (inactive) | GI50 (DMS-114): > 100 µM (inactive) | GI50 (KM-20L2): > 100 µM (inactive) | GI50 (DMS-273): > 100 µM (inactive)

CC1(c2ccccc2Cl)C(C#N)C(=O)NC(=O)C1C#N (centres undefined)
GI50 (LXFL 529): 27 µM (inactive) | GI50 (M19-MEL): 35.3 µM (inactive) | GI50 (SNB-78): 55.6 µM (inactive) | GI50 (DMS-114): 30.9 µM (inactive) | GI50 (KM-20L2): 36.1 µM (inactive) | GI50 (DMS-273): 33.6 µM (inactive)

O=C1CCC(c2ccccc2)C(O)(C(=O)O)C1 (centres undefined)
GI50 (LXFL 529): > 100 µM (inactive) | GI50 (M19-MEL): > 100 µM (inactive) | GI50 (RXF 631): > 100 µM (inactive) | GI50 (HOP-18): > 100 µM (inactive) | GI50 (SNB-78): > 100 µM (inactive) | GI50 (KM-20L2): > 100 µM (inactive) | GI50 (DMS-273): > 100 µM (inactive)

COC1=CC(=O)C(O)=C(CC2(C)C(C)CCC3(C)C2CCCC3(C)C)C1=O (centres undefined)
GI50 (LXFL 529): 5.41 µM (inactive) | GI50 (M19-MEL): 2.16 µM (inactive) | GI50 (RXF 631): 25.7 µM (inactive) | GI50 (HOP-18): 2.65 µM (inactive) | GI50 (XF498): 4.14 µM (inactive) | GI50 (SNB-78): 18.1 µM (inactive) | GI50 (DMS-114): 2.57 µM (inactive) | GI50 (KM-20L2): 2.42 µM (inactive) | GI50 (DMS-273): 3.47 µM (inactive)

COc1cccc(/C=C(\NC(C)=O)c2nc3cc(Cl)ccc3[nH]2)c1
GI50 (LXFL 529): > 100 µM (inactive) | GI50 (M19-MEL): > 100 µM (inactive) | GI50 (XF498): > 100 µM (inactive) | GI50 (SNB-78): > 100 µM (inactive) | GI50 (DMS-114): > 100 µM (inactive) | GI50 (KM-20L2): > 100 µM (inactive)

O=C(Nc1cccc(Cc2cccc(NC(=O)c3ccccc3)c2)c1)c1ccccc1
GI50 (LXFL 529): 28.7 µM (inactive) | GI50 (M19-MEL): 63 µM (inactive) | GI50 (HOP-18): 34.3 µM (inactive) | GI50 (DMS-114): 10.6 µM (inactive) | GI50 (KM-20L2): > 100 µM (inactive) | GI50 (DMS-273): 55 µM (inactive)

CSc1snc2sc3c(Cl)nnnc3c12
GI50 (LXFL 529): 2.11 µM (inactive) | GI50 (M19-MEL): 9.35 µM (inactive) | GI50 (RXF 631): 16.1 µM (inactive) | GI50 (HOP-18): 19.1 µM (inactive) | GI50 (XF498): 14.4 µM (inactive) | GI50 (SNB-78): 13.8 µM (inactive) | GI50 (DMS-114): 13.2 µM (inactive) | GI50 (KM-20L2): 14 µM (inactive) | GI50 (DMS-273): 11.4 µM (inactive)

CC(=O)/C(=C\c1cccc([N+](=O)[O-])c1)C(=O)Nc1ccccc1C
GI50 (LXFL 529): > 100 µM (inactive) | GI50 (M19-MEL): > 100 µM (inactive) | GI50 (HOP-18): > 100 µM (inactive) | GI50 (XF498): > 100 µM (inactive) | GI50 (SNB-78): > 100 µM (inactive) | GI50 (DMS-114): > 100 µM (inactive) | GI50 (KM-20L2): > 100 µM (inactive)

C=CCC(C(=O)OC)C1(C(=O)OC)c2[nH]c3ccccc3c2CCN1Cc1ccccc1 (centres undefined)
GI50 (M19-MEL): > 100 µM (inactive) | GI50 (DMS-114): > 100 µM (inactive) | GI50 (KM-20L2): > 100 µM (inactive)

COc1ccc(/C=c2/sc3n(c2=O)NC2(CCC(C)CC2)NN=3)cc1 (centres undefined)
GI50 (LXFL 529): > 100 µM (inactive) | GI50 (M19-MEL): > 100 µM (inactive) | GI50 (XF498): > 100 µM (inactive) | GI50 (SNB-78): > 100 µM (inactive) | GI50 (DMS-114): 50 µM (inactive) | GI50 (KM-20L2): > 100 µM (inactive) | GI50 (DMS-273): > 100 µM (inactive)

CC1(C)C=N[N+]2(C)C3C=CC(CC3)C12 (centres undefined)
GI50 (LXFL 529): > 100 µM (inactive) | GI50 (M19-MEL): > 100 µM (inactive) | GI50 (RXF 631): > 100 µM (inactive) | GI50 (HOP-18): > 100 µM (inactive) | GI50 (SNB-78): > 100 µM (inactive) | GI50 (DMS-114): > 100 µM (inactive) | GI50 (KM-20L2): > 100 µM (inactive)

Cc1c(Cl)ccc2c1NC(=O)C2(O)CC(=O)c1cccc2ccccc12 (centres undefined)
GI50 (LXFL 529): > 100 µM (inactive) | GI50 (M19-MEL): 18.3 µM (inactive) | GI50 (HOP-18): 77.3 µM (inactive) | GI50 (XF498): > 100 µM (inactive) | GI50 (SNB-78): > 100 µM (inactive) | GI50 (DMS-114): 18.3 µM (inactive) | GI50 (KM-20L2): 51.8 µM (inactive) | GI50 (DMS-273): 40.1 µM (inactive)

O=c1c2cccnc2ncn1CCCN1CCCC1
GI50 (M19-MEL): > 100 µM (inactive) | GI50 (XF498): > 100 µM (inactive) | GI50 (SNB-78): > 100 µM (inactive) | GI50 (DMS-114): 86.1 µM (inactive) | GI50 (DMS-273): > 100 µM (inactive)

O=C(OCN1C(=O)C2C3C=CC(C2C1=O)C1C2C(=O)N(COC(=O)C4CCCN4)C(=O)C2C31)C1CCCN1 (centres undefined)
GI50 (LXFL 529): 78.7 µM (inactive) | GI50 (M19-MEL): > 77.8 µM (inactive) | GI50 (RXF 631): > 64.7 µM (inactive) | GI50 (HOP-18): > 100 µM (inactive) | GI50 (XF498): > 75.9 µM (inactive) | GI50 (SNB-78): > 100 µM (inactive) | GI50 (DMS-114): 25.9 µM (inactive) | GI50 (KM-20L2): 64.1 µM (inactive) | GI50 (DMS-273): 38.5 µM (inactive)

CNCC(=O)Nc1ccc2c(c1)C(=O)c1ccc(NC(=O)CNC)cc1C2=O
GI50 (LXFL 529): 2.8 µM (inactive) | GI50 (HOP-18): < 0.01 µM (active) | GI50 (XF498): 3.32 µM (inactive) | GI50 (SNB-78): 3.05 µM (inactive) | GI50 (DMS-114): 2.03 µM (inactive) | GI50 (KM-20L2): 5.3 µM (inactive) | GI50 (DMS-273): 2.6 µM (inactive)

C=CC1=C(C)c2cc3[nH]c(cc4nc(cc5[nH]c(cc1n2)c(C)c5CCC(=O)N(CC)CC)C(CCC(=O)N(CC)CC)=C4C)c(C)c3C=C
GI50 (LXFL 529): > 100 µM (inactive) | GI50 (M19-MEL): > 100 µM (inactive) | GI50 (HOP-18): < 0.01 µM (active) | GI50 (SNB-78): > 100 µM (inactive) | GI50 (KM-20L2): > 100 µM (inactive)

CSc1nc(NC2OC(COC(C)=O)C(OC(C)=O)C(OC(C)=O)C2OC(C)=O)c(/N=C/C=N/c2c(NC3OC(COC(C)=O)C(OC(C)=O)C(OC(C)=O)C3OC(C)=O)nc(SC)[nH]c2=O)c(=O)[nH]1 (centres undefined)
GI50 (LXFL 529): > 100 µM (inactive) | GI50 (M19-MEL): > 100 µM (inactive) | GI50 (RXF 631): > 100 µM (inactive) | GI50 (HOP-18): > 100 µM (inactive) | GI50 (SNB-78): > 100 µM (inactive) | GI50 (DMS-114): > 100 µM (inactive) | GI50 (KM-20L2): > 100 µM (inactive) | GI50 (DMS-273): > 100 µM (inactive)

Cc1ccc(-c2cc(-c3ccco3)c(C#N)c(=O)n2C2OC(OC(=O)c3ccccc3)C(OC(=O)c3ccccc3)C2OC(=O)c2ccccc2)cc1 (centres undefined)
GI50 (LXFL 529): > 100 µM (inactive) | GI50 (M19-MEL): > 100 µM (inactive) | GI50 (RXF 631): > 100 µM (inactive) | GI50 (HOP-18): > 100 µM (inactive) | GI50 (SNB-78): 83.6 µM (inactive) | GI50 (DMS-114): 38.6 µM (inactive) | GI50 (KM-20L2): > 100 µM (inactive) | GI50 (DMS-273): 97.1 µM (inactive)

O=C1OCC(C(=O)c2cccc(O)c2)C1=O (centres undefined)
GI50 (LXFL 529): > 100 µM (inactive) | GI50 (M19-MEL): > 100 µM (inactive) | GI50 (RXF 631): > 100 µM (inactive) | GI50 (HOP-18): > 100 µM (inactive) | GI50 (SNB-78): > 100 µM (inactive) | GI50 (DMS-114): > 100 µM (inactive) | GI50 (KM-20L2): > 100 µM (inactive) | GI50 (DMS-273): > 100 µM (inactive)

CCC1(N=[N+]=[N-])C(=O)c2ccccc2N(C)C1=O (centres undefined)
GI50 (LXFL 529): > 100 µM (inactive) | GI50 (M19-MEL): > 100 µM (inactive) | GI50 (HOP-18): 82.2 µM (inactive) | GI50 (SNB-78): > 100 µM (inactive) | GI50 (DMS-114): > 100 µM (inactive) | GI50 (KM-20L2): > 100 µM (inactive) | GI50 (DMS-273): > 100 µM (inactive)

O=C1NC(=O)C(C(=O)C(=O)Nc2ccc(Cl)cc2Cl)C(=O)N1
GI50 (LXFL 529): > 100 µM (inactive) | GI50 (M19-MEL): > 100 µM (inactive) | GI50 (RXF 631): > 100 µM (inactive) | GI50 (SNB-78): > 100 µM (inactive) | GI50 (DMS-114): > 100 µM (inactive) | GI50 (KM-20L2): > 100 µM (inactive)

CCc1cccc(C)c1NC(=O)CC(=O)NNC(N)=S
GI50 (LXFL 529): > 100 µM (inactive) | GI50 (HOP-18): > 100 µM (inactive) | GI50 (XF498): > 100 µM (inactive) | GI50 (SNB-78): > 100 µM (inactive) | GI50 (DMS-114): > 100 µM (inactive) | GI50 (KM-20L2): > 100 µM (inactive) | GI50 (DMS-273): > 100 µM (inactive)

O=S(=O)(O)C(O)/C=C/c1ccccc1 (centres undefined)
GI50 (LXFL 529): > 100 µM (inactive) | GI50 (M19-MEL): > 100 µM (inactive) | GI50 (HOP-18): > 100 µM (inactive) | GI50 (DMS-114): 65.2 µM (inactive) | GI50 (KM-20L2): > 100 µM (inactive) | GI50 (DMS-273): > 100 µM (inactive)

COc1c(C)c2c(c(O)c1C/C=C(\C)CCC(=O)O)C(=O)OC2 [MYCOPHENOLIC ACID]
GI50 (LXFL 529): 0.693 µM (active) | GI50 (M19-MEL): 1.28 µM (inactive) | GI50 (HOP-18): 16.1 µM (inactive) | GI50 (DMS-114): 0.845 µM (active) | GI50 (DMS-273): 0.35 µM (active)
